In brackets after ≈: the same amount, converted by molar mass. Where a SMILES comes first, the peptide text is derived from it.
Columns and labels:
[1] = test system: Candida strains (C. albicans, C. glabrata, C. krusei); test: Anti-Candida assay, overall result in words; type: cell-based, Candida spp; conditions: standard culture conditions, broth culture medium
Description: (§1) Two Candida albicans isolates were purchased from the ATCC (No. 24433 and 76615). The other yeast isolates were obtained from the collection of Fondazione Ca' Granda- Ospedale Maggiore Policlinico, Milano. The collection included C. albicans (7 isolates), C. glabrata (3 isolates), and C. krusei (3 isolates). Antifungal susceptibility testing was performed using the broth microdilution method according to the NCCLS M27-A guidelines (National Committee for Clinical Laboratory Standards. 1997, Reference method for broth dilution antifungal susceptibility testing of yeasts and approved standard NCCLS document M27-A. National Committee for Clinical Laboratory Standards, Wayne, Pa.). […] After 48 h of incubation, the plates were inspected for purity. A colony was taken from the agar plate and transferred into 5 mL Sabouraud-dextrose broth and incubated for 48 h at 35°C. Cells were centrifuged at 1,000× g for 10 min and the pellet was washed twice with distilled water. Cells were counted and suspended in RPMI 1640 medium buffered to pH 7.0 with 0.165 mol l^−1 morpholinepropanesulphonic acid (MOPS) buffer (Sigma) to obtain the two times test inoculum (1×10^3 to 5×10^3 CFU/mL). […] The MIC90, i.e. the minimum inhibitory concentrations endpoint were determined as 90% reduction in turbidity measured using a spectrophotometer (Titertek multiscan at 690 nm wave length).

[2] = test system: C. krusei; type: cell-based, Candida krusei; conditions: 48 h
Description: as §1

[3] = test system: C. glabrata; type: cell-based, Candida glabrata; conditions: 48 h
Description: as §1

[4] = test system: Staphylococcus aureus ATCC 25923; type: cell-based; conditions: ATCC 25923, 18 h
Description: (§2) The strains used for the antimicrobial assays were the Gram-negative bacteria Acinetobacter baumani ATCC 19606, Escherichia coli D21, Pseudomonas aeruginosa ATCC 27853, and Pseudomonas syringae pv tabaci 1918NCPPB and the Gram-positive bacteria Bacillus megaterium Bm11, Staphylococcus aureus ATCC 25923, and Staphylococcus epidermidis ATCC 12228. Susceptibility testing was performed by adapting the microbroth dilution method outlined by the Clinical and Laboratory Standards Institute, using sterile 96-well plates (Falcon NJ, USA). The bacterial growth was aseptically measured by absorbance at 590 nm with a spectrophotometer (UV-1700 Pharma Spec Shimadzu, Tokyo, Japan). Afterwards, aliquots (50 µl) of bacteria in mid-log phase at a concentration of 2×10^6 colony-forming units (CFU)/mL in culture medium (Mueller-Hinton, MH) were added to 50 µl of MH broth containing the peptide in serial 2-fold dilutions ranging from 1.56 to 100 µM. Inhibition of microbial growth was determined by measuring the absorbance at 590 nm, after an incubation of 18 h at 37°C with a microplate reader (Infinite M200; Tecan, Salzburg, Austria).

[5] = test system: Escherichia coli D21; type: cell-based; conditions: D21, 18 h
Description: as §2

[6] = test system: Pseudomonas aeruginosa ATCC 27853; type: cell-based; conditions: ATCC 27853, 18 h
Description: as §2

[7] = test system: Pseudomonas syringae pv tabaci 1918NCPPB; type: cell-based; conditions: 18 h
Description: as §2

[8] = test system: Bacillus megaterium Bm11; type: cell-based; conditions: Bacillus Bm11, 18 h
Description: as §2

[9] = test system: Acinetobacter baumani ATCC 19606; type: cell-based; conditions: ATCC 19606, 18 h
Description: as §2

[10] = test system: Staphylococcus epidermidis ATCC 12228; type: cell-based; conditions: ATCC 12228, 18 h
Description: as §2

[11] = test system: HaCaT keratinocyte cell line; test: Cytotoxic activity, MTT colorimetric method; type: cell-based, human; conditions: highest peptide concentration used (100 µM), 24 h
Description: Effects on viability was tested in the immortalised keratinocyte cell line HaCaT using the [3(4,5-dimethylthiazol-2yl)2,5-diphenyltetrazolium bromide] (MTT) colorimetric method in which the intensity of the dye is proportional to the number of viable cells. MTT is a tetrazolium salt which is reduced to a colored formazan product by mitochondrial reductases present only in metabolically active cells. Cells were cultured in Dulbecco's modified Eagle's medium (DMEM; Sigma) supplemented with 10% heat inactivated fetal bovine serum, glutamine (4 mM) and gentamicin. Afterwards, cells were plated in triplicate wells of a microtiter plate, at 4×10^4 cells/well in DMEM supplemented with 2% serum without antibiotic. After overnight incubation at 37°C in a 5% CO2 atmosphere, the medium was replaced with […] fresh DMEM supplemented with the peptides at different concentrations. The plate was incubated for 24 h at 37°C in a 5% CO2 atmosphere. Then, DMEM was removed and replaced with Hank's medium (136 mM NaCl; 4.2 mM Na2HPO4; 4.4 mM KH2PO4; 5.4 mM KCl; 4.1 mM NaHCO3, pH 7.2, supplemented with 20 mM D-glucose) containing 0.5 mg/ml MTT. After 4 h incubation, the formazan crystals were dissolved by adding 100 µl of acidified isopropanol and absorption of each well was measured using a microplate reader (Infinite M200; Tecan, Salzburg, Austria) at 570 nm. Cell viability was e expressed as percentage of viability in control cells (cells not treated with peptide).
Figure 1 Effects of the synthetic melanocortins on viability of HaCat cells. Cells were plated in wells of a microtiter plate, at 4×10^4 cells/well in DMEM supplemented with 2% serum without antibiotic. After overnight incubation at 37°C in a 5% CO2 atmosphere, the medium was replaced with 100 µl fresh DMEM supplemented with the peptides at different concentrations. […] Cell viability is expressed as percentage of viability in control cells (cells not treated with the peptide).

[12] = test system: C. albicans; type: cell-based, Candida albicans; conditions: 48 h
Description: as §1

MIC 90 [2] [µM]	MIC 90 [3] [µM]	MIC 90 [12] [µM]	SMILES	antimicrobial / anti-Candida activity (in words) [1]	other results
99 (≈ 115 µg/mL)	>100		CC(C)[C@H](NC(=O)[C@H](Cc1ccccc1)NC(=O)[C@H](CCCCN)NC(=O)C1(NC(=O)[C@H](Cc2c[nH]c3ccccc23)NC(=O)[C@H](CCCNC(=N)N)NC(=O)[C@@H](Cc2ccc3ccccc3c2)NC(=O)[C@@H](N)Cc2c[nH]cn2)CCC1)C(N)=O [Peptide 5, H-His-D(2′)Nal-Arg-Trp-Ac4c -Lys-Phe-Val-NH2] (HELM PEPTIDE1{H.[O=C([C@@H](Cc1ccc2ccccc2c1)N[*:1])[*:2]].R.W.[O=C(C1(N[*:1])CCC1)[*:2]].K.F.V.[am]}$$$$V2.0)	weak activity	
>100	>100		CC(C)[C@H](NC(=O)[C@H](Cc1ccccc1)NC(=O)[C@H](CCCCN)NC(=O)C1(NC(=O)[C@H](Cc2c[nH]c3ccccc23)NC(=O)[C@H](CCCNC(=N)N)NC(=O)[C@@H](Cc2ccc3ccccc3c2)NC(=O)[C@@H](N)Cc2c[nH]cn2)CCCC1)C(N)=O [Peptide 6, H-His-D(2′)Nal-Arg-Trp-Ac5c-Lys-Phe-Val-NH2] (HELM PEPTIDE1{H.[O=C([C@@H](Cc1ccc2ccccc2c1)N[*:1])[*:2]].R.W.[O=C(C1(N[*:1])CCCC1)[*:2]].K.F.V.[am]}$$$$V2.0)	substantial activity	
>100	>100	>100	CCC(CC)(NC(=O)[C@H](Cc1c[nH]c2ccccc12)NC(=O)[C@H](CCCNC(=N)N)NC(=O)[C@@H](Cc1ccc2ccccc2c1)NC(=O)[C@@H](N)Cc1c[nH]cn1)C(=O)N[C@@H](CCCCN)C(=O)N[C@@H](Cc1ccccc1)C(=O)N[C@H](C(N)=O)C(C)C [Peptide 2, H-His-D(2′)Nal-Arg-Trp-Deg-Lys-Phe-Val-NH2] (HELM PEPTIDE1{H.[O=C([C@@H](Cc1ccc2ccccc2c1)N[*:1])[*:2]].R.W.[CCC(CC)(N[*:1])C(=O)[*:2]].K.F.V.[am]}$$$$V2.0)	did not show antimicrobial activity	
97 (≈ 112 µg/mL)	>100		CC(C)[C@H](NC(=O)[C@H](Cc1ccccc1)NC(=O)[C@H](CCCCN)NC(=O)C(C)(C)NC(=O)[C@H](Cc1c[nH]c2ccccc12)NC(=O)[C@H](CCCNC(=N)N)NC(=O)[C@@H](Cc1ccc2ccccc2c1)NC(=O)[C@@H](N)Cc1c[nH]cn1)C(N)=O [Peptide 1, H-His-D(2′)Nal-Arg-Trp-Aib-Lys-Phe-Val-NH2] (HELM PEPTIDE1{H.[O=C([C@@H](Cc1ccc2ccccc2c1)N[*:1])[*:2]].R.W.[Aib].K.F.V.[am]}$$$$V2.0)	did not show antimicrobial activity	
	>100	51 (≈ 60.9 µg/mL)	CC(C)[C@H](NC(=O)[C@H](Cc1ccccc1)NC(=O)[C@H](CCCCN)NC(=O)C1(NC(=O)[C@H](Cc2c[nH]c3ccccc23)NC(=O)[C@H](CCCNC(=N)N)NC(=O)[C@@H](Cc2ccc3ccccc3c2)NC(=O)[C@@H](N)Cc2c[nH]cn2)CCCCC1)C(N)=O [Peptide 7, H-His-D(2′)Nal-Arg-Trp-Ac6c -Lys-Phe-Val-NH2] (HELM PEPTIDE1{H.[O=C([C@@H](Cc1ccc2ccccc2c1)N[*:1])[*:2]].R.W.[O=C(C1(N[*:1])CCCCC1)[*:2]].K.F.V.[am]}$$$$V2.0)	substantial activity	
>100	>100	>100	CC(C)[C@H](NC(=O)[C@H](Cc1ccccc1)NC(=O)[C@H](CCCCN)NC(=O)[C@@H]1CCC[C@H]1NC(=O)[C@H](Cc1c[nH]c2ccccc12)NC(=O)[C@H](CCCNC(=N)N)NC(=O)[C@@H](Cc1ccc2ccccc2c1)NC(=O)[C@@H](N)Cc1c[nH]cn1)C(N)=O [Peptide 12, H-His-D(2′)Nal-Arg-Trp-Acpc-Lys-Phe-Val-NH2] (HELM PEPTIDE1{H.[O=C([C@@H](Cc1ccc2ccccc2c1)N[*:1])[*:2]].R.W.[O=C([C@@H]1CCC[C@H]1N[*:1])[*:2]].K.F.V.[am]}$$$$V2.0)	no anti-Candida activity	
>100	>100	>100	CC(C)[C@H](NC(=O)[C@H](Cc1ccccc1)NC(=O)[C@H](CCCCN)NC(=O)CNC(=O)CNC(=O)[C@H](Cc1c[nH]c2ccccc12)NC(=O)[C@H](CCCNC(=N)N)NC(=O)[C@@H](Cc1ccc2ccccc2c1)NC(=O)[C@@H](N)Cc1c[nH]cn1)C(N)=O [Peptide 13, H-His-D(2′)Nal-Arg-Trp-Gly-Gly-Lys-Phe-Val-NH2] (HELM PEPTIDE1{H.[O=C([C@@H](Cc1ccc2ccccc2c1)N[*:1])[*:2]].R.W.G.G.K.F.V.[am]}$$$$V2.0)	no activity	
>100	>100	>100	CC(C)[C@H](NC(=O)[C@H](Cc1ccccc1)NC(=O)[C@H](CCCCN)NC(=O)CCNC(=O)[C@H](Cc1c[nH]c2ccccc12)NC(=O)[C@H](CCCNC(=N)N)NC(=O)[C@@H](Cc1ccc2ccccc2c1)NC(=O)[C@@H](N)Cc1c[nH]cn1)C(N)=O [Peptide 11, H-His-D(2′)Nal-Arg-Trp-βAla-Lys-Phe-Val-NH2] (HELM PEPTIDE1{H.[O=C([C@@H](Cc1ccc2ccccc2c1)N[*:1])[*:2]].R.W.[bAla].K.F.V.[am]}$$$$V2.0)	no anti-Candida activity	

SMILES	MIC 90 [2] [µM]	MIC 90 [3] [µM]	MIC 90 [12] [µM]	antimicrobial / anti-Candida activity (in words) [1]	other results
CC(C)[C@H](NC(=O)[C@H](Cc1ccccc1)NC(=O)[C@H](CCCCN)NC(=O)C1(NC(=O)[C@H](Cc2c[nH]c3ccccc23)NC(=O)[C@H](CCCNC(=N)N)NC(=O)[C@@H](Cc2ccc3ccccc3c2)NC(=O)[C@@H](N)Cc2c[nH]cn2)Cc2ccccc2C1)C(N)=O [Peptide 8, H-His-D(2′)Nal-Arg-Trp-Aic-Lys-Phe-Val-NH2] (HELM PEPTIDE1{H.[O=C([C@@H](Cc1ccc2ccccc2c1)N[*:1])[*:2]].R.W.[O=C(C1(N[*:1])Cc2ccccc2C1)[*:2]].K.F.V.[am]}$$$$V2.0)		100 (≈ 123 µg/mL)			MIC 100 [4]: 12.5 µM (≈ 15.3 µg/mL); MIC 100 [5]: 12.5 µM (≈ 15.3 µg/mL); MIC 100 [6]: 50 µM (≈ 61.4 µg/mL); MIC 100 [7]: 25 µM (≈ 30.7 µg/mL); MIC 100 [8]: 1.56 µM (≈ 1.91 µg/mL); MIC 100 [9]: 12.5 µM (≈ 15.3 µg/mL); MIC 100 [10]: 6.25 µM (≈ 7.67 µg/mL); cell death / killing of human keratinocytes [11]: 50–100%
